Measured values: ChEMBL document CHEMBL1132978, “Artificial neural network applied to prediction of fluorquinolone antibacterial activity by topological methods” (2000)
In brackets after ≈: the same amount, converted by molar mass.

test system: Escherichia coli; assay: Minimum inhibitory concentration against Escherichia coli; type: functional

SMILES	MIC [µg/mL]
CC(N)C1CCN(c2c(F)cc3c(=O)c(C(=O)O)cn(C4CC4)c3c2F)C1 (stereo unspecified)	0.013 (≈ 0.0344 µM)
CC(C)CN1CCN(c2cc3c(cc2F)c(=O)c(C(=O)O)cn3-c2ccc(F)cc2F)CC1	3.1 (≈ 6.75 µM)
CN1CCN(c2cc3c(cc2F)c(=O)c(C(=O)O)cn3-c2ccc(F)cc2F)CC1	0.2 (≈ 0.479 µM)
CCNCC1CCN(c2cc3c(c(N)c2F)c(=O)c(C(=O)O)cn3C2CC2)C1 (stereo unspecified)	0.1 (≈ 0.257 µM)
COc1c(N2CCCC(N)C2)c(F)cc2c(=O)c(C(=O)O)cn(C3CC3)c12 (stereo unspecified)	0.1 (≈ 0.266 µM)
CC1CN(c2cc3c(cc2F)c(=O)c(C(=O)O)cn3C(C)(C)C)CCN1 (stereo unspecified)	0.1 (≈ 0.277 µM)
CCNCC1CCN(c2c(F)c(N)c3c(=O)c(C(=O)O)cn(C4CC4)c3c2F)C1 (stereo unspecified)	0.05 (≈ 0.123 µM)
NCC1CCN(c2cc3c(cc2F)c(=O)c(C(=O)O)cn3C2CC2)C1 (stereo unspecified)	0.05 (≈ 0.145 µM)
CCNC(C)C1CCN(c2cc3c(c(N)c2F)c(=O)c(C(=O)O)cn3C2CC2)C1 (stereo unspecified)	0.1 (≈ 0.248 µM)
CCN1CCN(c2cc3c(cc2F)c(=O)c(C(=O)O)cn3C(C)(C)C)CC1	0.2 (≈ 0.533 µM)
O=C(O)c1cn(C2CCC2)c2cc(N3CCNCC3)c(F)cc2c1=O	0.4 (≈ 1.16 µM)
CC1CN(c2cc3c(cc2F)c(=O)c(C(=O)O)cn3C(C)C)CC(C)N1 (stereo unspecified)	1.6 (≈ 4.43 µM)
CCCCN1CCN(c2cc3c(cc2F)c(=O)c(C(=O)O)cn3-c2ccc(F)cc2F)CC1	0.8 (≈ 1.74 µM)
CCn1cc(C(=O)O)c(=O)c2cc(F)c(N3CC(C)NC(C)C3)cc21 (stereo unspecified)	0.4 (≈ 1.15 µM)
CC1CN(c2cc3c(cc2F)c(=O)c(C(=O)O)cn3C(C)(C)C)CC(C)N1 (stereo unspecified)	0.2 (≈ 0.533 µM)
CCC1CN(c2cc3c(cc2F)c(=O)c(C(=O)O)cn3-c2ccc(F)cc2F)CCN1 (stereo unspecified)	0.4 (≈ 0.927 µM)
CCN1CCN(c2cc3c(cc2F)c(=O)c(C(=O)O)cn3CC)CC1	0.1 (≈ 0.288 µM)
NCC1CCCN(c2c(F)c(N)c3c(=O)c(C(=O)O)cn(C4CC4)c3c2F)C1 (stereo unspecified)	0.05 (≈ 0.127 µM)

SMILES	MIC [µg/mL]
CNCC1CCN(c2cc3c(cc2F)c(=O)c(C(=O)O)cn3C(C)C)C1 (stereo unspecified)	3.1 (≈ 8.58 µM)
COc1c(N2CC(C)NC(C)C2)c(F)c(N)c2c(=O)c(C(=O)O)cn(C3CC3)c12 (stereo unspecified)	0.2 (≈ 0.495 µM)
CCn1cc(C(=O)O)c(=O)c2cc(F)c(N3CCNC(C)C3)cc21 (stereo unspecified)	0.2 (≈ 0.6 µM)
CNCC1CCN(c2nc3c(cc2F)c(=O)c(C(=O)O)cn3C2CC2)C1 (stereo unspecified)	0.1 (≈ 0.277 µM)
CCNCC1CCN(c2c(F)cc3c(=O)c(C(=O)O)cn(C4CC4)c3c2C(F)(F)F)C1 (stereo unspecified)	0.4 (≈ 0.906 µM)
CC1(CN)CCN(c2c(F)c(N)c3c(=O)c(C(=O)O)cn(C4CC4)c3c2F)C1 (stereo unspecified)	0.2 (≈ 0.51 µM)
CC(C)CN1CCN(c2cc3c(cc2F)c(=O)c(C(=O)O)cn3C2CC2)CC1	0.2 (≈ 0.516 µM)
CC(C)(C)n1cc(C(=O)O)c(=O)c2cc(F)c(N3CCC(N)C3)cc21 (stereo unspecified)	0.2 (≈ 0.576 µM)
COc1c(N2CCCC(CN)C2)c(F)cc2c(=O)c(C(=O)O)cn(C3CC3)c12 (stereo unspecified)	0.2 (≈ 0.514 µM)
COc1c(N2CCC(N)C2)c(F)c(N)c2c(=O)c(C(=O)O)cn(C3CC3)c12 (stereo unspecified)	0.025 (≈ 0.0664 µM)
NC1CCN(c2c(F)cc3c(=O)c(C(=O)O)cn(C4CC4)c3c2Cl)C1 (stereo unspecified) [CLINAFLOXACIN]	0.013 (≈ 0.0355 µM)
CCN1CCN(c2cc3c(cc2F)c(=O)c(C(=O)O)cn3C2CC2)CC1 [ENROFLOXACIN]	0.05 (≈ 0.139 µM)
COc1c(N2CCNC(C)C2)c(F)cc2c(=O)c(C(=O)O)cn(C3CC3)c12 (stereo unspecified) [GATIFLOXACIN]	0.05 (≈ 0.133 µM)
CCNCC1CCN(c2c(F)cc3c(=O)c(C(=O)O)cn(CC)c3c2F)C1 (stereo unspecified) [MERAFLOXACIN]	0.1 (≈ 0.264 µM)
CCn1cc(C(=O)O)c(=O)c2cc(F)c(N3CCNCC3)cc21 [NORFLOXACIN]	0.1 (≈ 0.313 µM)
CCNCC1CCN(c2c(F)cc3c(=O)c(C(=O)O)cn(C4CC4)c3c2F)C1 (stereo unspecified) [PD-117558]	0.05 (≈ 0.128 µM)
CC1CN(c2cc3c(cc2F)c(=O)c(C(=O)O)cn3-c2ccc(F)cc2F)CCN1 (stereo unspecified) [TEMAFLOXACIN]	0.1 (≈ 0.24 µM)
NC1CCN(c2nc3c(cc2F)c(=O)c(C(=O)O)cn3-c2ccc(F)cc2F)C1 (stereo unspecified) [TOSUFLOXACIN]	0.025 (≈ 0.0618 µM)
